Reference: patent publication US9012433B2, “Substituted tetracycline compounds” (Paratek Pharmaceuticals, Inc., priority 2006, dated 2015)
In brackets after ≈: the same amount, converted by molar mass. Where two headings read alike, the source gives them in different places.

Tests used:
[1] = system: B. thetaiotaomicron ATCC 29741; experiment: Antibacterial MIC, CLSI broth microdilution; assay type: cell-based; details: Bacteroides thetaiotaomicron
Experimental: (§1) Grain (−) and gram (+) antibacterial minimum inhibitory concentration (MIC) values (μg/mL) were obtained using CLSI methodology for anti-bacterial susceptibility testing. On each day of testing, serial dilutions of compounds were prepared in microdilution plates using a Tecan robotic workstation. Mueller Hinton broth cultures of representative sensitive and resistant gram negative strains were grown or adjusted to match the turbidity of a 0.5 McFarland standard. 1:200 dilutions were made in an appropriate broth (cation supplemented Mueller Hinton broth) to allow a final inoculum of 1×10^5 cfu. Plates were incubated at 35° C. in ambient air for 18-24 hours, were read spectrophotometrically and checked manually for evidence of bacterial growth. The lowest dilution of compound that inhibited growth was recorded as the MIC. Lysed horse blood was used to supplement broth for testing S. pneumoniae. The MIC's for each compound were assessed against S. aureus, S. pneumoniae, P. acnes, E. coli and B. theta.

[2] = system: E. coli ATCC 25922; experiment: Antibacterial MIC, CLSI broth microdilution; assay type: cell-based; details: Escherichia coli, ATCC25922; 35° C., 18-24 hours
Experimental: as §1

[3] = system: E. coli MG 1655; experiment: Antibacterial MIC, CLSI broth microdilution; assay type: cell-based; details: Escherichia coli, MG1655; 35° C., 18-24 hours
Experimental: as §1

[4] = system: P. acnes ATCC 11827; experiment: Antibacterial MIC, CLSI broth microdilution; assay type: cell-based; details: Cutibacterium acnes, ATCC11827; 35° C., 18-24 hours
Experimental: as §1

[5] = system: P. acnes ATCC 6919; experiment: Antibacterial MIC, CLSI broth microdilution; assay type: cell-based; details: Cutibacterium acnes, ATCC6919; 35° C., 18-24 hours
Experimental: as §1

[6] = system: S. aureus RN450; experiment: Antibacterial MIC, CLSI broth microdilution; assay type: cell-based; details: Staphylococcus aureus, RN450; 35° C., 18-24 hours
Experimental: as §1

[7] = system: S. pneumoniae 157E - Strep; experiment: Antibacterial MIC, CLSI broth microdilution; assay type: cell-based; details: Streptococcus pneumoniae, 157ESTREP; 35° C., 18-24 hours; lysed horse blood
Experimental: as §1

[8] = in vitro; assay type: cell-based
Experimental: Mammalian cell cytotoxicity was assessed to evaluate potential in vivo risks associated with the tetracycline compounds of the invention. A soluble, non-toxic redox dye (“Resazurin”; Alamar Blue) was used to assess a tetracycline compound's effect on cellular metabolism. At the onset of the experiment, cultures of mammalian COS-1 or CHO cells were washed, trypsinized, and harvested. […] On the next day, serial dilutions of test drug were prepared under sterile conditions and transferred to cell plates. Plates were then incubated under the above conditions for 24 hours. Following the incubation period, the media/drug was aspirated, and 50 μL of resazurin was added. Plates were then incubated under the above conditions for 2 hours and then in the dark at room temperature for an additional 30 minutes. Fluorescence measurements were taken (excitation 535 nm, emission 590 nm) and toxic effects in treated versus control cells were compared based on the degree of fluorescence in each well.

[9] = system: S. aureus RN450; experiment: In vivo anti-bacterial activity, S. aureus model; details: mice, 24 hours; for responders at 5 mg/kg / ED50: Staphylococcus aureus, sc; for responders at 5 mg/kg: read-out: Percent Survival; for ED50: lethal IP S. aureus RN450, subcutaneous, read-out: PD50 (dose that protects 50% of the animals)
Experimental: Groups of five mice were injected intraperitoneally with a lethal dose of S. aureus RN450 in a medium of mucin. Mice were evaluated at 24 hours to determine survival. […] In some instances, a dose response study was performed with the compound such that a PD50 (a dose of compound that protects 50% of the animals) could be calculated.

[10] = Half-life of oxidation, sodium periodate accelerated oxidation; assay type: physicochemical
Experimental: Not to be limited by theory, it is believed that the tissue staining may be caused oxidative instability. The tetracycline compounds were subjected to accelerated oxidation in a continuous-flow microreactor using a 15 molar excess of sodium periodate at pH 11 and 22° C. Aliquots of each reaction mixture were quenched at various time points with ascorbic acid and the disappearance of each compound was determined by RP-HPLC. Pseudo first-order rate constants and t1/2 values were obtained from the plots of log (Ao-At/Ao) versus time, where Ao is the HPLC area determined for each compound at time=0 and At is the HPLC area at time=t.

[11] = ATCC29741, 35° C., 18-24 hours, read-out: MIC B. thetaiotaomicron ATCC 29741
[12] = lethal IP S. aureus RN450, single subcutaneous dose 5 mg/kg
[13] = ATCC29741, read-out: MIC B. thetaiotaomicron ATCC 29741

half-life ([10]; 15 molar excess of sodium periodate, pH 11, 22° C., read-out: half-life for oxidation (converted)) [min] | Compound | MIC [1, 11] [µg/mL] | MIC [2] [µg/mL] | MIC [3] [µg/mL] | MIC [4] [µg/mL] | MIC [5] [µg/mL] | MIC [6] [µg/mL] | MIC [7] [µg/mL] | IC50 at 24 h ([8]; African green monkey) [µg/mL] | IC50 at 24 h ([8]; Chinese hamster) [µg/mL] | responders at 5 mg/kg [9, 12] [%] | ED50 [9] [mg/kg] | MIC [1, 13] [µg/mL] | half-life ([10]; buffer, pH 11) [min] | Percent Survival ([9]; lethal IP S. aureus RN450, single subcutaneous dose 5 mg/kg, 5 mg/kg)
– | C/C(=N\OC(C)(C)C)c1cc(N)c(O)c2c1C[C@H]1C[C@H]3[C@H](N(C)C)C(O)=C(C(N)=O)C(=O)[C@@]3(O)C(O)=C1C2=O [Q, (4S,4aS,5aR,12aS)-9-Amino-7-(1-tert-butoxyimino-ethyl)-4-dimethylamino-3,10,12,12a-tetrahydroxy-1,11-dioxo-1,4,4a,5,5a,6,11,12a-octahydro-naphthacene-2-carboxylic acid amide] | 4 to 8 (≈ 7.37 to 14.7 µM) | 4 to 8 (≈ 7.37 to 14.7 µM) | 4 to 8 (≈ 7.37 to 14.7 µM) | < 4 | < 4 | < 4 | < 4 | < 35 | < 35 | 100 | 0.45 | – | – | –
8.25 | CN(C)c1cc(C#N)c(O)c2c1C[C@H]1C[C@H]3[C@H](N(C)C)C(O)=C(C(N)=O)C(=O)[C@@]3(O)C(O)=C1C2=O [B] | 4 to 8 (≈ 8.29 to 16.6 µM) | > 8 | > 8 | < 4 | < 4 | < 4 | < 4 | < 35 | < 35 | – | – | – | – | –
– | CN(C)[C@@H]1C(O)=C(C(N)=O)C(=O)[C@@]2(O)C(O)=C3C(=O)c4c(O)ccc(CNOCC(F)F)c4C[C@H]3C[C@@H]12 [DX] | < 4 | 4 to 8 (≈ 7.64 to 15.3 µM) | 4 to 8 (≈ 7.64 to 15.3 µM) | < 4 | < 4 | < 4 | < 4 | < 35 | 35 to 75 (≈ 66.9 to 143 µM) | – | 0.58 | – | – | –
– | CNc1c(-c2ccc(O)c3c2C[C@H]2C[C@H]4[C@H](N(C)C)C(O)=C(C(N)=O)C(=O)[C@@]4(O)C(O)=C2C3=O)c(=O)c1=O [AD, (4S,4aS,5aR,12aS)-4-Dimethylamino-3,10,12,12a-tetrahydroxy-7-(2-methylamino-3,4-dioxo-cyclobut-1-enyl)-1,11-dioxo-1,4,4a,5,5a,6,11,12a-octahydro-naphthacene-2-carboxylic acid amide] | > 8 | 4 to 8 (≈ 7.64 to 15.3 µM) | 4 to 8 (≈ 7.64 to 15.3 µM) | < 4 | < 4 | < 4 | < 4 | < 35 | < 35 | – | 4.54 | – | – | –
– | CN(C)c1cccc2c1C[C@H]1C[C@H]3[C@H](N(C)C)C(O)=C(C(N)=O)C(=O)[C@@]3(O)C(O)=C1C2=O [C] | > 8 | > 8 | > 8 | < 4 | < 4 | < 4 | < 4 | > 75 | > 75 | 100 | – | – | – | –
– | CN(C)c1ccc(O)c2c1C[C@H]1C[C@H]3[C@H](N(C)C)C(O)=C(C(N)=O)C(=O)[C@@]3(O)C(O)=C1C2=O [Minocycline, reference compound] | – | < 4 | < 4 | < 4 | < 4 | < 4 | < 4 | > 75 | > 75 | – | – | 4 to 8 (≈ 8.74 to 17.5 µM) | 0.137 | –
– | CN(C)[C@@H]1C(O)=C(C(N)=O)C(=O)[C@@]2(O)C(O)=C3C(=O)c4c(O)ccc(CNOCCF)c4C[C@H]3C[C@@H]12 [DW, (4S,4aS,5aR,12aS)-4-Dimethylamino-7-[(2-fluoro-ethoxyamino)-methyl]-3,10,12,12a-tetrahydroxy-1,11-dioxo-1,4,4a,5,5a,6,11,12a-octahydro-naphthacene-2-carboxylic acid amide] | 4 to 8 (≈ 7.91 to 15.8 µM) | < 4 | > 8 | < 4 | < 4 | < 4 | < 4 | > 75 | > 75 | – | 0.48 | – | – | –
– | CN(C)[C@@H]1C(O)=C(C(N)=O)C(=O)[C@@]2(O)C(O)=C3C(=O)c4c(O)ccc(CNOCC(F)(F)F)c4C[C@H]3C[C@@H]12 [DZ] | < 4 | 4 to 8 (≈ 7.39 to 14.8 µM) | > 8 | < 4 | < 4 | < 4 | < 4 | < 35 | < 35 | – | 1.11 | – | – | –
– | CC(C)ONCc1ccc(O)c2c1C[C@H]1C[C@H]3[C@H](N(C)C)C(O)=C(C(N)=O)C(=O)[C@@]3(O)C(O)=C1C2=O [DV, (4S,4aS,5aR,12aS-4-Dimethylamino-3,10,12,12a-tetrahydroxy-7-isopropoxyamino-methyl)-1,11-dioxo-1,4,4a,5,5a,6,11,12a-octahydro-naphthacene-2-carboxylic acid amide] | 4 to 8 (≈ 7.98 to 16 µM) | 4 to 8 (≈ 7.98 to 16 µM) | > 8 | < 4 | < 4 | < 4 | < 4 | < 35 | < 35 | – | 1.1 | – | – | –
– | CO/N=C/c1cc(N(C)C)c2c(c1O)C(=O)C1=C(O)[C@]3(O)C(=O)C(C(N)=O)=C(O)[C@@H](N(C)C)[C@@H]3C[C@@H]1C2 [V, (4S,4aS,5aR,12aS)-4,7-Bis-dimethylamino-3,10,12,12a-tetrahydroxy-9-(methoxyimino-methyl)-1,11-dioxo-1,4,4a,5,5a,6,11,12a-octahydro-naphthacene-2-carboxylic acid amide] | 4 to 8 (≈ 7.77 to 15.5 µM) | > 8 | > 8 | < 4 | < 4 | < 4 | < 4 | < 35 | < 35 | – | 1.4 | – | – | –
– | CCONCc1ccc(O)c2c1C[C@H]1C[C@H]3[C@H](N(C)C)C(O)=C(C(N)=O)C(=O)[C@@]3(O)C(O)=C1C2=O [AA, (4S,4aS,5aR,12aS)-4-Dimethylamino-7-(ethoxyamino-methyl)-3,10,12,12a-tetrahydroxy-1,11-dioxo-1,4,4a,5,5a,6,11,12a-octahydro-naphthacene-2-carboxylic acid amide] | 4 to 8 (≈ 8.2 to 16.4 µM) | 4 to 8 (≈ 8.2 to 16.4 µM) | 4 to 8 (≈ 8.2 to 16.4 µM) | < 4 | < 4 | < 4 | < 4 | > 75 | > 75 | 100 | – | – | – | –
– | C[C@H]1c2cccc(O)c2C(=O)C2=C(O)[C@]3(O)C(=O)C(C(N)=O)=C(O)[C@@H](N(C)C)[C@@H]3[C@@H](O)[C@@H]21 [Doxycycline, reference compound] | – | < 4 | < 4 | < 4 | < 4 | < 4 | < 4 | > 75 | > 75 | 100 | 0.13 | 4 to 8 (≈ 9 to 18 µM) | – | 100 (5/5) Percent
